This is an account of results in patent US9351974B2, “Substituted pteridinones for the treatment of cancer” (OSI Pharmaceuticals, LLC, priority 2011, dated 2016).

pIC50: −log10 of the molar value. Some results are limits rather than exact numbers.

T1 sequence (P51812 whole entry): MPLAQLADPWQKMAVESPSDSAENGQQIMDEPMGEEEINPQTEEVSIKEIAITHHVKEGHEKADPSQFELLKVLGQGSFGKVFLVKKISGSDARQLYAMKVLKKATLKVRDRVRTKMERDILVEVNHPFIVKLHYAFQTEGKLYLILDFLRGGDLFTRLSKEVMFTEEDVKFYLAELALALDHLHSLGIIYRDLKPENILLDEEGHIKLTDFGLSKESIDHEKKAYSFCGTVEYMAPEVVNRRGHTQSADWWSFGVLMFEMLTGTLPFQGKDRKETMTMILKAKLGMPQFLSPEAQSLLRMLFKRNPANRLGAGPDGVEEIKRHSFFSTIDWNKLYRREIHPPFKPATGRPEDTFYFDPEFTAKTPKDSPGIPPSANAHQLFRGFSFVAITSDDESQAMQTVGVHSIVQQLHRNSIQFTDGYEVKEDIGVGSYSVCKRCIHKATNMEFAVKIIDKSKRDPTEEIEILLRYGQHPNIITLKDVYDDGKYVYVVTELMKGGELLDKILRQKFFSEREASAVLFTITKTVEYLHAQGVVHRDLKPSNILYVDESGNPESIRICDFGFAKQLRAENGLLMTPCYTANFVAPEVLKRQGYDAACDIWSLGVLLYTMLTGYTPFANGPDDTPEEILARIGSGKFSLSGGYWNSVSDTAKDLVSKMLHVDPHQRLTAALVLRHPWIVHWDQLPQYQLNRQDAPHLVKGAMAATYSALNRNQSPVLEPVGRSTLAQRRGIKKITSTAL

This assay addresses T1, His-tagged full-length RSK2 (RPS6KA3) (Homo sapiens, UniProt P51812).
T1 construct: His-tagged full-length RSK2 (RPS6KA3, Invitrogen PV3323); His; purchased Invitrogen PV3323
Description: RSK2 Omnia Assay for compound IC50 determination. Format: biochemical. As to conditions: ATP 15 μM, n=2, read-out: Mean RSK2 Biochem IC50. The procedure:
RSK1 & RSK2 Omnia Assay Protocol for Compound IC50 Determination
The Omnia Assay (Invitrogen) has been optimized for His-tagged full length RSK1 (RPS6KA1, Millipore 14-509) and for His-tagged full-length RSK2 (RPS6KA3, Invitrogen PV3323). In this assay system, Omnia ST Peptide 6 (Invitrogen KNZ1061) functions as a substrate for RSK1 or RSK2. Phosphorylation of this SOX-containing peptide results in an increase in fluorescence at 485 nm upon excitation at 360 nm.
Assays are carried out in 384-well OptiPlates (Perkin Elmer 6007290) in a total volume of 20 μL containing RSK1 ([…]) or RSK2 ([…]), Omnia ST Peptide 6 (5 μM), ATP (15 μM, Km=16.3 μM), and test compound (variable) in RSK assay buffer (50 mM HEPES, pH 7.5, 10 mM MgCl2, 0.01% Tween-20, 1% glycerol, 1 mM DTT, 1 mM EGTA, 0.01% BSA) with 1% DMSO.
IC50s for test compounds are typically determined using an 11-point three-fold serial dilution with a final assay concentration ranging either from 170 μM to […] or from 17 μM to […]. All compound concentrations are assayed in duplicate. Initial compound dilutions are prepared at 100× concentration in 100% DMSO from a 10 mM stock solution. Compounds are further diluted 1:25 in assay buffer resulting in a 4× concentrated solution.
To run the assay 5 μL of the above 4× concentrated compound solution (or 4% DMSO for positive controls) is added to the assay plate followed by 5 μL of a solution containing peptide (20 μM) and ATP (60 μM) in assay buffer. The reaction is initiated by the addition of 10 μL of RSK1 ([…]) or RSK2 ([…]) in assay buffer, or assay buffer alone for negative controls. The increase in fluorescence due to peptide phosphorylation is monitored continuously as a function of time using a Spectramax M5 plate reader (Molecular Devices) equipped with SoftMax Pro software.
The slopes from the linear portion of progress curves are used to determine IC50 values by non-linear curve-fitting to a four-parameter equation using GraphPad Prism (GraphPad Software, Inc.) or XLFit (IDBS). IC50's are determined in duplicate (n=2) and Ki values are calculated from IC50 values using the Cheng-Prusoff equation assuming a competitive mode of inhibition.
Consider `Cc1cccc(N2C(=O)[C@@H](C)N(C3CCCCC3)c3nc(Nc4ccc5[nH]ncc5c4)ncc32)c1` [Example 30, (7R)-8-cyclohexyl-2-(1H-indazol-5-ylamino)-7-methyl-5-(3-methylphenyl)-7,8-dihydropteridin-6(5H)-one], for which the pIC50 is not below 7.00.

`C[C@@H]1C(=O)N(c2cccc(Cl)c2)c2cnc(Nc3ccc4[nH]ncc4c3)nc2N1C1CCCCC1` [Example 31, (7R)-5-(3-chlorophenyl)-8-cyclohexyl-2-(1H-indazol-5-ylamino)-7-methyl-7,8-dihydropteridin-6(5H)-one]: the pIC50 was not below 7.00. As to `C[C@@H]1C(=O)N(c2cccc(C(=O)N(C)C)c2)c2cnc(Nc3ccc4[nH]ncc4c3)nc2N1C1CCCCC1` [Example 32, 3-[(7R)-8-cyclohexyl-2-(1H-indazol-5-ylamino)-7-methyl-6-oxo-7,8-dihydropteridin-5(6H)-yl]-N,N-dimethylbenzamide], the pIC50 is not below 7.00. In the case of `C[C@@H]1C(=O)N(c2ccc(OC(F)(F)F)cc2)c2cnc(Nc3ccc4[nH]ncc4c3)nc2N1C1CCCCC1` [Example 33, (7R)-8-cyclohexyl-2-(1H-indazol-5-ylamino)-7-methyl-5-[4-(trifluoromethoxy)phenyl]-7,8-dihydropteridin-6(5H)-one], the pIC50 is 6.00 to 7.00. In the case of `C[C@@H]1C(=O)N(c2cccc(OC(F)(F)F)c2)c2cnc(Nc3ccc4[nH]ncc4c3)nc2N1C1CCCCC1` [Example 34, (7R)-8-cyclohexyl-2-(1H-indazol-5-ylamino)-7-methyl-5-[3-(trifluoromethoxy)phenyl]-7,8-dihydropteridin-6(5H)-one], the pIC50 was not below 7.00. Turning to `C[C@@H]1C(=O)N(c2ccc(C(F)(F)F)cc2)c2cnc(Nc3ccc4[nH]ncc4c3)nc2N1C1CCCCC1` [Example 35, (7R)-8-cyclohexyl-2-(1H-indazol-5-ylamino)-7-methyl-5-[4-(trifluoromethyl)phenyl]-7,8-dihydropteridin-6(5H)-one], the pIC50 is not below 7.00.

Turning to `C[C@@H]1C(=O)N(c2cccc(C(F)(F)F)c2)c2cnc(Nc3ccc4[nH]ncc4c3)nc2N1C1CCCCC1` [Example 36, (7R)-8-cyclohexyl-2-(1H-indazol-5-ylamino)-7-methyl-5-[3-(trifluoromethyl)phenyl]-7,8-dihydropteridin-6(5H)-one], the pIC50 was not below 7.00. Turning to `CNS(=O)(=O)c1ccc(N2C(=O)[C@@H](C)N(C3CCCCC3)c3nc(Nc4ccc5[nH]ncc5c4)ncc32)cc1` [Example 37, 4-[(7R)-8-cyclohexyl-2-(1H-indazol-5-ylamino)-7-methyl-6-oxo-7,8-dihydropteridin-5(6H)-yl]-N-methylbenzenesulfonamide], the pIC50 is not below 7.00.

As for `COc1cc(N2C(=O)[C@@H](C)N(C3CCCCC3)c3nc(Nc4ccc5[nH]ncc5c4)ncc32)cc(OC)c1OC` [Example 38, (7R)-8-cyclohexyl-2-(1H-indazol-5-ylamino)-7-methyl-5-(3,4,5-trimethoxyphenyl)-7,8-dihydropteridin-6(5H)-one], the pIC50 was not below 7.00. Turning to `C[C@@H]1C(=O)N(c2ccc3c(c2)OCO3)c2cnc(Nc3ccc4[nH]ncc4c3)nc2N1C1CCCCC1` [Example 39, (7R)-5-(1,3-benzodioxol-5-yl)-8-cyclohexyl-2-(1H-indazol-5-ylamino)-7-methyl-7,8-dihydropteridin-6(5H)-one], the pIC50 was not below 7.00. On to `C[C@@H]1C(=O)N(c2ccc(S(C)(=O)=O)cc2)c2cnc(Nc3ccc4[nH]ncc4c3)nc2N1C1CCCCC1` [Example 40, (7R)-8-cyclohexyl-2-(1H-indazol-5-ylamino)-7-methyl-5-[4-(methylsulfonyl)phenyl]-7,8-dihydropteridin-6(5H)-one], for which the pIC50 was not below 7.00. The figure for `C[C@@H]1C(=O)N(c2ccc(N(C)C)cc2)c2cnc(Nc3ccc4[nH]ncc4c3)nc2N1C1CCCCC1` [Example 41, (7R)-8-cyclohexyl-5-[4-(dimethylamino)phenyl]-2-(1H-indazol-5-ylamino)-7-methyl-7,8-dihydropteridin-6(5H)-one] is not below 7.00.

In the case of `CNS(=O)(=O)c1cccc(N2C(=O)[C@@H](C)N(C3CCCCC3)c3nc(Nc4ccc5[nH]ncc5c4)ncc32)c1` [Example 42, 3-[(7R)-8-cyclohexyl-2-(1H-indazol-5-ylamino)-7-methyl-6-oxo-7,8-dihydropteridin-5(6H)-yl]-N-methylbenzenesulfonamide], the pIC50 is not below 7.00. As for `C[C@@H]1C(=O)N(c2cccc(S(C)(=O)=O)c2)c2cnc(Nc3ccc4[nH]ncc4c3)nc2N1C1CCCCC1` [Example 43, (7R)-8-cyclohexyl-2-(1H-indazol-5-ylamino)-7-methyl-5-[3-(methylsulfonyl)phenyl]-7,8-dihydropteridin-6(5H)-one], the figure is not below 7.00. For `C[C@@H]1C(=O)N(c2cccc(N(C)C)c2)c2cnc(Nc3ccc4[nH]ncc4c3)nc2N1C1CCCCC1` [Example 44, (7R)-8-cyclohexyl-5-[3-(dimethylamino)phenyl]-2-(1H-indazol-5-ylamino)-7-methyl-7,8-dihydropteridin-6(5H)-one], the pIC50 was not below 7.00. In the case of `C[C@@H]1C(=O)N(c2ccc3ccccc3c2)c2cnc(Nc3ccc4[nH]ncc4c3)nc2N1C1CCCCC1` [Example 45, (7R)-8-cyclohexyl-2-(1H-indazol-5-ylamino)-7-methyl-5-(naphthalen-2-yl)-7,8-dihydropteridin-6(5H)-one], the pIC50 was not below 7.00.

Take `CNC(=O)c1cccc(N2C(=O)[C@@H](C)N(C3CCCCC3)c3nc(Nc4ccc5[nH]ncc5c4)ncc32)c1` [Example 46, 3-[(7R)-8-cyclohexyl-2-(1H-indazol-5-ylamino)-7-methyl-6-oxo-7,8-dihydropteridin-5(6H)-yl]-N-methylbenzamide]: the pIC50 was not below 7.00. For the molecule `C[C@@H]1C(=O)N(c2ccc(NS(C)(=O)=O)cc2)c2cnc(Nc3ccc4[nH]ncc4c3)nc2N1C1CCCCC1` [Example 47, N-{4-[(7R)-8-cyclohexyl-2-(1H-indazol-5-ylamino)-7-methyl-6-oxo-7,8-dihydropteridin-5(6H)-yl]phenyl}methanesulfonamide], the pIC50 is not below 7.00. Take `COc1ccc(N2C(=O)[C@@H](C)N(C3CCCCC3)c3nc(Nc4ccc5[nH]ncc5c4)ncc32)cn1` [Example 48, (7R)-8-cyclohexyl-2-(1H-indazol-5-ylamino)-5-(6-methoxypyridin-3-yl)-7-methyl-7,8-dihydropteridin-6(5H)-one]: the pIC50 is not below 7.00. As for `C[C@@H]1C(=O)N(c2ccc(F)c(F)c2)c2cnc(Nc3ccc4[nH]ncc4c3)nc2N1C1CCCCC1` [Example 49, (7R)-8-cyclohexyl-5-(3,4-difluorophenyl)-2-(1H-indazol-5-ylamino)-7-methyl-7,8-dihydropteridin-6(5H)-one], the pIC50 is not below 7.00.

Consider `C[C@@H]1C(=O)N(c2cnc3ccccc3c2)c2cnc(Nc3ccc4[nH]ncc4c3)nc2N1C1CCCCC1` [Example 50, (7R)-8-cyclohexyl-2-(1H-indazol-5-ylamino)-7-methyl-5-(quinolin-3-yl)-7,8-dihydropteridin-6(5H)-one], for which the pIC50 was not below 7.00.

Consider `C[C@@H]1C(=O)N(c2cccc(C#N)c2)c2cnc(Nc3ccc4c(c3)CC(=O)N4)nc2N1C1CCCCC1` [Example 51, 3-[(7R)-8-cyclohexyl-7-methyl-6-oxo-2-[(2-oxo-2,3-dihydro-1H-indol-5-yl)amino]-7,8-dihydropteridin-5(6H)-yl]benzonitrile], for which the pIC50 is not below 7.00.

Take `COC(=O)c1ccc(N2C(=O)[C@@H](C)N(C3CCCCC3)c3nc(Nc4ccc5[nH]ncc5c4)ncc32)cc1` [Example 52, methyl 4-[(7R)-8-cyclohexyl-2-(1H-indazol-5-ylamino)-7-methyl-6-oxo-7,8-dihydropteridin-5(6H)-yl]benzoate]: the pIC50 was not below 7.00. The figure for `Cc1ccc(N2C(=O)[C@@H](C)N(C3CCCCC3)c3nc(Nc4ccc5[nH]ncc5c4)ncc32)cc1C#N` [Example 53, 5-[(7R)-8-cyclohexyl-2-(1H-indazol-5-ylamino)-7-methyl-6-oxo-7,8-dihydropteridin-5(6H)-yl]-2-methylbenzonitrile] is not below 7.00; for `COc1cc(N2C(=O)[C@@H](C)N(C3CCCCC3)c3nc(Nc4ccc5[nH]ncc5c4)ncc32)ccc1F` [Example 54, (7R)-8-cyclohexyl-5-(4-fluoro-3-methoxyphenyl)-2-(1H-indazol-5-ylamino)-7-methyl-7,8-dihydropteridin-6(5H)-one] it is not below 7.00.
